Reference: PMC7898037, “Improving mitochondria and ER stability helps eliminate upper motor neuron degeneration that occurs due to mSOD1 toxicity and TDP‐43 pathology” (Clinical and Translational Medicine, 2021)

What was measured:
[1] = cited from earlier work
[2] = tested on: hSOD1^G93A‐UeGFP mice; assay: Rotarod test, hSOD1^G93A‐UeGFP mice; format: in vivo; design: Rotarod, Mean Diff. (vehicle minus NU-9) / Rotarod, mean difference GS vehicle vs. GS NU-9 (20) / Rotarod, mean difference GS vehicle vs. GS NU-9 (100): unit not given here; details: for Rotarod, group mean (Mean 1 / Mean 2 of 2way ANOVA multiple comparisons) / Rotarod, mean difference GS vehicle vs. GS NU-9 (20) / Rotarod, mean difference GS vehicle vs. GS NU-9 (100): GS (hSOD1G93A-UeGFP); for Rotarod, mean difference GS vehicle vs. GS NU-9 (20): vehicle minus NU-9 (20); for Rotarod, mean difference GS vehicle vs. GS NU-9 (100): vehicle minus NU-9 (100); for Rotarod, group mean (Mean 1 / Mean 2) / Rotarod, Mean Diff. (vehicle minus NU-9): hSOD1G93A-UeGFP mice; for Rotarod, Average: hSOD1G93A-UeGFP
Method: (§1) hSOD1^G93A‐UeGFP, prpTDP‐43^A315T‐UeGFP and WT‐UeGFP mice were weighed and the required NU‐9 dose per weight was calculated (20 or 100 mg/kg), which was administered once daily by oral gavage, starting at postnatal day (P)60 and continuing until P120. Animals from the untreated group received the vehicle (NMP and olive oil) only. For oral administration purposes, 20 ga × 38 mm plastic feeding tubes were used (Instech Laboratories, Inc). The gavage tip was inserted into the mouth directly over the tongue and into the pharynx. While observing the swallowing reflex, the tip was safely and smoothly slid into the esophagus. Once the administration was completed, the gavage tip was pulled straight out.
(§2) Behavior data were collected from hSOD1^G93A‐UeGFP and WT‐UeGFP mice (starting at P60 and every 7 days until P116) and from prpTDP‐43^A315T‐UeGFP mice (at P60, P90, and P120) with the following number of mice for each group: WT‐UeGFP vehicle (n = 10), hSOD1^G93A‐UeGFP vehicle (n = 6), WT‐UeGFP 20 mg/kg/day NU‐9 (n = 5), hSOD1^G93A‐UeGFP 20 mg/kg/day NU‐9 (n = 7), WT‐UeGFP 100 mg/kg/day NU‐9 (n = 11), hSOD1^G93A‐UeGFP 100 mg/kg/day NU‐9 (n = 9), prpTDP‐43^A315T‐UeGFP untreated (n ≥ 3), and prpTDP‐43^A315T‐UeGFP 100 mg/kg/day NU‐9 (n = 4) (Table S3).
(§3) Mice were placed on a rotating rod that accelerates linearly from 4 to 40 rpm (Rotarod, Ugo Basile), and the average time spent on the rotating rod for three consecutive trials was calculated for each mouse. Mice were allowed to run for a maximum of 5 min with a 5 min rest period between each run, and the latency to fall was recorded for three consecutive trials. The average of the three trials was taken as the data point for each mouse at the age tested, and the performance of different groups are reported as the mean ± SEM.

[3] = tested on: Caco‐2; design: method as in PMID 22189273, PMID 22837812; details: cited from earlier work
[4] = tested on: hERG channel; details: cited from earlier work
[5] = tested on: prpTDP‐43^A315T‐UeGFP mice; assay: Rotarod test, prpTDP‐43^A315T‐UeGFP mice; format: in vivo; details: for Rotarod, Predicted (LS) mean: prpTDP-43A315T-UeGFP (NU-9 100 mg/kg/day); for Rotarod, Average: prpTDP-43A315T-UeGFP, NU-9 100 mg/kg/day po
Method: as §1, §2, §3

C[C@H](Oc1cc(C(F)(F)F)cc(C(F)(F)F)c1)C1CC(=O)CC(=O)C1 [NU‐9]
plasma stability t 1/2 [1]: > 2 h | Rotarod, group mean (Mean 1 / Mean 2 of 2way ANOVA multiple comparisons) ([2]; NU-9 (20), P102): 158.8 | Rotarod, group mean (Mean 1 / Mean 2 of 2way ANOVA multiple comparisons) ([2]; NU-9 (20), P109): 149.1 | Rotarod, group mean (Mean 1 / Mean 2 of 2way ANOVA multiple comparisons) ([2]; NU-9 (20), P116): 107.7 | Rotarod, group mean (Mean 1 / Mean 2 of 2way ANOVA multiple comparisons) ([2]; NU-9 (100), P102): 170 | Rotarod, group mean (Mean 1 / Mean 2 of 2way ANOVA multiple comparisons) ([2]; NU-9 (100), P109): 151.3 | Rotarod, group mean (Mean 1 / Mean 2 of 2way ANOVA multiple comparisons) ([2]; NU-9 (100), P116): 128.5 | Rotarod, mean difference GS vehicle vs. GS NU-9 (20) ([2]; P102): 22.8 | Rotarod, mean difference GS vehicle vs. GS NU-9 (20) ([2]; P109): 18.74 | Rotarod, mean difference GS vehicle vs. GS NU-9 (20) ([2]; P116): 14.44 | Rotarod, mean difference GS vehicle vs. GS NU-9 (100) ([2]; P102): 11.61 | Rotarod, mean difference GS vehicle vs. GS NU-9 (100) ([2]; P109): 16.57 | Rotarod, mean difference GS vehicle vs. GS NU-9 (100) ([2]; P116): -6.407 | Rotarod, group mean (Mean 1 / Mean 2) ([2]; NU-9 20 mg/kg/day, P60): 221.3 | Rotarod, group mean (Mean 1 / Mean 2) ([2]; NU-9 20 mg/kg/day, P67): 221.6 | Rotarod, group mean (Mean 1 / Mean 2) ([2]; NU-9 20 mg/kg/day, P74): 213.6 | Rotarod, group mean (Mean 1 / Mean 2) ([2]; NU-9 20 mg/kg/day, P81): 207.4 | Rotarod, group mean (Mean 1 / Mean 2) ([2]; NU-9 20 mg/kg/day, P88): 209.5 | Rotarod, group mean (Mean 1 / Mean 2) ([2]; NU-9 20 mg/kg/day, P95): 178.8 | Rotarod, group mean (Mean 1 / Mean 2) ([2]; NU-9 100 mg/kg/day, P60): 206.8 | Rotarod, group mean (Mean 1 / Mean 2) ([2]; NU-9 100 mg/kg/day, P67): 223.1 | Rotarod, group mean (Mean 1 / Mean 2) ([2]; NU-9 100 mg/kg/day, P74): 224 | Rotarod, group mean (Mean 1 / Mean 2) ([2]; NU-9 100 mg/kg/day, P81): 223.4 | Rotarod, group mean (Mean 1 / Mean 2) ([2]; NU-9 100 mg/kg/day, P88): 203.8 | Rotarod, group mean (Mean 1 / Mean 2) ([2]; NU-9 100 mg/kg/day, P95): 191 | Rotarod, Mean Diff. (vehicle minus NU-9) ([2]; vehicle vs. NU-9 20 mg/kg/day, P60): -28.22 | Rotarod, Mean Diff. (vehicle minus NU-9) ([2]; vehicle vs. NU-9 20 mg/kg/day, P67): 4.159 | Rotarod, Mean Diff. (vehicle minus NU-9) ([2]; vehicle vs. NU-9 20 mg/kg/day, P74): 4.103 | Rotarod, Mean Diff. (vehicle minus NU-9) ([2]; vehicle vs. NU-9 20 mg/kg/day, P81): -5.651 | Rotarod, Mean Diff. (vehicle minus NU-9) ([2]; vehicle vs. NU-9 20 mg/kg/day, P88): -17.41 | Rotarod, Mean Diff. (vehicle minus NU-9) ([2]; vehicle vs. NU-9 20 mg/kg/day, P95): 23.52 | Rotarod, Mean Diff. (vehicle minus NU-9) ([2]; vehicle vs. NU-9 20 mg/kg/day, P102): 22.8 | Rotarod, Mean Diff. (vehicle minus NU-9) ([2]; vehicle vs. NU-9 20 mg/kg/day, P109): 18.74 | Rotarod, Mean Diff. (vehicle minus NU-9) ([2]; vehicle vs. NU-9 20 mg/kg/day, P116): 14.44 | Rotarod, Mean Diff. (vehicle minus NU-9) ([2]; vehicle vs. NU-9 100 mg/kg/day, P60): -13.7 | Rotarod, Mean Diff. (vehicle minus NU-9) ([2]; vehicle vs. NU-9 100 mg/kg/day, P67): 2.704 | Rotarod, Mean Diff. (vehicle minus NU-9) ([2]; vehicle vs. NU-9 100 mg/kg/day, P74): -6.241 | Rotarod, Mean Diff. (vehicle minus NU-9) ([2]; vehicle vs. NU-9 100 mg/kg/day, P81): -21.67 | Rotarod, Mean Diff. (vehicle minus NU-9) ([2]; vehicle vs. NU-9 100 mg/kg/day, P88): -11.7 | Rotarod, Mean Diff. (vehicle minus NU-9) ([2]; vehicle vs. NU-9 100 mg/kg/day, P95): 11.37 | Rotarod, Mean Diff. (vehicle minus NU-9) ([2]; vehicle vs. NU-9 100 mg/kg/day, P102): 11.61 | Rotarod, Mean Diff. (vehicle minus NU-9) ([2]; vehicle vs. NU-9 100 mg/kg/day, P109): 16.57 | Rotarod, Mean Diff. (vehicle minus NU-9) ([2]; vehicle vs. NU-9 100 mg/kg/day, P116): -6.407 | Rotarod, Average ([2]; NU-9 20 mg/kg/day po, P60): 221.333 s | Rotarod, Average ([2]; NU-9 20 mg/kg/day po, P67): 221.619 s | Rotarod, Average ([2]; NU-9 20 mg/kg/day po, P74): 213.619 s | Rotarod, Average ([2]; NU-9 20 mg/kg/day po, P81): 207.429 s | Rotarod, Average ([2]; NU-9 20 mg/kg/day po, P88): 209.524 s | Rotarod, Average ([2]; NU-9 20 mg/kg/day po, P95): 178.81 s | Rotarod, Average ([2]; NU-9 20 mg/kg/day po, P102): 158.81 s | Rotarod, Average ([2]; NU-9 20 mg/kg/day po, P109): 149.095 s | Rotarod, Average ([2]; NU-9 20 mg/kg/day po, P116): 107.667 s | Rotarod, Average ([2]; NU-9 100 mg/kg/day po, P60): 206.815 s | Rotarod, Average ([2]; NU-9 100 mg/kg/day po, P67): 223.074 s | Rotarod, Average ([2]; NU-9 100 mg/kg/day po, P74): 223.963 s | Rotarod, Average ([2]; NU-9 100 mg/kg/day po, P81): 223.444 s | Rotarod, Average ([2]; NU-9 100 mg/kg/day po, P88): 203.815 s | Rotarod, Average ([2]; NU-9 100 mg/kg/day po, P95): 190.963 s | Rotarod, Average ([2]; NU-9 100 mg/kg/day po, P102): 170 s | Rotarod, Average ([2]; NU-9 100 mg/kg/day po, P109): 151.259 s | Rotarod, Average ([2]; NU-9 100 mg/kg/day po, P116): 128.519 s | rotarod performance ([2]; hSOD1^G93A‐UeGFP mice, regardless of dose (20 or 100 mg/kg/day)): did not result in significant improvement | Caco‐2 A→B [3]: 24.1 × 10^–6 cm/s | Caco‐2 B→A [3]: 1.5 × 10^–6 cm/s | Caco‐2 Efflux ratio [3]: 0.06 | inhibition of the hERG channel [4]: little inhibition | hERG antagonism ([4]; up to 30 µM): No inhibition up to 30 µM | Rotarod, Predicted (LS) mean ([5]; P60, mixed-effects analysis): 260 | Rotarod, Predicted (LS) mean ([5]; P90, mixed-effects analysis): 216 | Rotarod, Predicted (LS) mean ([5]; P120, mixed-effects analysis): 165.8 | Rotarod, Average ([5]; P60): 267.889 | Rotarod, Average ([5]; P90): 232.556 | Rotarod, Average ([5]; P120): 178.444 | rotarod test, latency to fall ([5]; prpTDP‐43^A315T‐UeGFP mice, 100 mg/kg/day, after 30 days of treatment): 232.6 ± 18.1 s
